From ChEMBL document CHEMBL3885861, “Open TG-GATES”

Organism: Rattus norvegicus
Assay: Open TG-GATES - Regimen: Daily Repeat
Assay type: toxicity, organism-based, Sprague-Dawley
Set-up: regimen Daily Repeat, gender Male, age 6 weeks
Details: in vivo, po, 0 mg/kg, route gavage, dose level Control; for APTT / Bas / Eos / Fbg / Hb / Ht / Lym / MCH / MCHC / MCV / Mono / Neu / PT / Plat / RBC / Ret / WBC: tissue Blood; for KIDNEY_L / KIDNEY_R / KIDNEY_TOTAL: tissue Kidney; for LIVER: tissue Liver; for A/G / ALP / ALT / AST / BUN / CRE / Ca / Cl / DBIL / GLC / IP / K / LDH / Na / PL / RALB / TBIL / TC / TG / TP / gamma-GTP: tissue Plasma

## C[C@](N)(Cc1ccc(O)c(O)c1)C(=O)O [METHYLDOPA]
72 h, time 3 day
  TERMINAL_BW: 207.1 g
  APTT: 15.9 s
  Bas: 0%
  Eos: 1.2%
  Fbg: 258.8 mg/dL
  Hb: 13.1 g/dL
  Ht: 38.4%
  Lym: 72.4%
  MCH: 21.5 pg
  MCHC: 34.1%
  MCV: 63.1 fL
  Mono: 3.4%
  Neu: 22.6%
  PT: 12.6 s
  Plat: 117.2 x10_4/uL
  RBC: 609 x10_4/ul
  Ret: 7.9%
  WBC: 72.1 x10_2/uL
  KIDNEY_L: 0.9 g
  KIDNEY_R: 0.9 g
  KIDNEY_TOTAL: 1.8 g
  LIVER: 9.3 g
  A/G: 0.8
  ALP: 1855.2 IU/L
  ALT: 59.4 IU/L
  AST: 80.2 IU/L
  BUN: 14 mg/dL
  CRE: 0.2 mg/dL
  Ca: 11.1 mg/dL
  Cl: 106.6 meq/L
  DBIL: 0.008 mg/dL
  GLC: 172.8 mg/dL
  IP: 7.5 mg/dL
  K: 3.9 meq/L
  LDH: 52.2 IU/L
  Na: 144.6 meq/L
  PL: 129.8 mg/dL
  RALB: 2.6 g/dL
  TBIL: 0.056 mg/dL
  TC: 76.8 mg/dL
  TG: 61.4 mg/dL
  TP: 5.6 g/dL
  gamma-GTP: 1.2 IU/L
[…], time 7 day
  TERMINAL_BW: 238 g
  APTT: 17 s
  Bas: 0%
  Eos: 1.2%
  Fbg: 283.2 mg/dL
  Hb: 13.5 g/dL
  Ht: 39.4%
  Lym: 75%
  MCH: 21 pg
  MCHC: 34.2%
  MCV: 61.4 fL
  Mono: 3%
  Neu: 20.4%
  PT: 12 s
  Plat: 114.7 x10_4/uL
  RBC: 641.2 x10_4/ul
  Ret: 6%
  WBC: 75.9 x10_2/uL
  KIDNEY_L: 1 g
  KIDNEY_R: 1 g
  KIDNEY_TOTAL: 2 g
  LIVER: 10.9 g
  A/G: 0.9
  ALP: 1514 IU/L
  ALT: 46.8 IU/L
  AST: 72 IU/L
  BUN: 15.6 mg/dL
  CRE: 0.2 mg/dL
  Ca: 11 mg/dL
  Cl: 108.6 meq/L
  DBIL: 0.008 mg/dL
  GLC: 178.2 mg/dL
  IP: 6.9 mg/dL
  K: 4.2 meq/L
  LDH: 57.4 IU/L
  Na: 143.8 meq/L
  PL: 140.8 mg/dL
  RALB: 2.7 g/dL
  TBIL: 0.056 mg/dL
  TC: 75.8 mg/dL
  TG: 93.2 mg/dL
  TP: 5.8 g/dL
  gamma-GTP: 1.2 IU/L
[…], time 14 day
  TERMINAL_BW: 288.8 g
  APTT: 16.9 s
  Bas: 0%
  Eos: 1%
  Fbg: 290.4 mg/dL
  Hb: 13.8 g/dL
  Ht: 39.4%
  Lym: 76%
  MCH: 21.2 pg
  MCHC: 35%
  MCV: 60.4 fL
  Mono: 3.2%
  Neu: 19.6%
  PT: 14.1 s
  Plat: 102.2 x10_4/uL
  RBC: 652 x10_4/ul
  Ret: 4.8%
  WBC: 69.9 x10_2/uL
  KIDNEY_L: 1.1 g
  KIDNEY_R: 1.1 g
  KIDNEY_TOTAL: 2.2 g
  LIVER: 12.7 g
  A/G: 0.8
  ALP: 1553 IU/L
  ALT: 45.2 IU/L
  AST: 65.4 IU/L
  BUN: 15.2 mg/dL
  CRE: 0.2 mg/dL
  Ca: 11.3 mg/dL
  Cl: 107 meq/L
  DBIL: 0.01 mg/dL
  GLC: 188.4 mg/dL
  IP: 6.4 mg/dL
  K: 4.5 meq/L
  LDH: 66.2 IU/L
  Na: 142 meq/L
  PL: 151.8 mg/dL
  RALB: 2.7 g/dL
  TBIL: 0.058 mg/dL
  TC: 76 mg/dL
  TG: 140.8 mg/dL
  TP: 6 g/dL
  gamma-GTP: 1 IU/L
[…], time 28 day
  TERMINAL_BW: 375.3 g
  APTT: 19.6 s
  Bas: 0%
  Eos: 1.4%
  Fbg: 315.2 mg/dL
  Hb: 15 g/dL
  Ht: 43.3%
  Lym: 74.4%
  MCH: 19.5 pg
  MCHC: 34.8%
  MCV: 56 fL
  Mono: 2.6%
  Neu: 21.4%
  PT: 13.6 s
  Plat: 106 x10_4/uL
  RBC: 774 x10_4/ul
  Ret: 2.7%
  WBC: 74.6 x10_2/uL
  KIDNEY_L: 1.3 g
  KIDNEY_R: 1.2 g
  KIDNEY_TOTAL: 2.5 g
  LIVER: 15.4 g
  A/G: 0.8
  ALP: 1221.8 IU/L
  ALT: 41.2 IU/L
  AST: 59 IU/L
  BUN: 15.4 mg/dL
  CRE: 0.2 mg/dL
  Ca: 11.2 mg/dL
  Cl: 105.6 meq/L
  DBIL: 0.018 mg/dL
  GLC: 185.4 mg/dL
  IP: 6 mg/dL
  K: 3.9 meq/L
  LDH: 46.2 IU/L
  Na: 142.8 meq/L
  PL: 167.8 mg/dL
  RALB: 2.8 g/dL
  TBIL: 0.06 mg/dL
  TC: 89 mg/dL
  TG: 140.8 mg/dL
  TP: 6.3 g/dL
  gamma-GTP: 1 IU/L
